Measured values published in paper PMC5660230, “Combined x-ray crystallography and computational modeling approach to investigate the Hsp90 C-terminal peptide binding to FKBP51” (Scientific Reports, 2017).
“Also recorded” adds a separate entry of the source. Residues, ends and D or L forms follow the SMILES beside them.

Tests used:
FKBP51 = experiment: Differential scanning fluorimetry (DSF), melting temperature shift of FKBP51; type: binding, human; conditions: FKBP51 0.1 mg/ml, 5X SYPRO orange, 0.5X PBS
Experimental: (§1) Differential scanning fluorimetry was performed using Bio-Rad CFX96 qPCR following a well-established protocol. Briefly, 25 µl of solution containing purified FKBP51 at a concentration of 0.1 mg/ml, 5X SYPRO orange (Life Technologies), and Hsp90 C-terminal peptide ranging from 0–500 µM in 0.5X PBS was transferred to a 96-well PCR plate in triplicate. The plate was centrifuged, sealed and the fluorescence was measured using the FRET channel between 20 and 80 °C with an increment of 0.2 °C in each cycle. The melting temperature was determined from the first derivative peaks of the melting curve using Bio-Rad CFX96 manager software. Further, the dissociation constant of the complex between FKBP51 and C90 was determined by fitting the resulting data using single site ligand binding model[35] with the bottom (T1) and top (T2) temperatures fitting to 43.8 and 48.5 °C, respectively. The concentration of FKBP51 (2 µM) was used as the value of the constant P. The fitting was performed using GraphPad Prism, version 7.02. Additionally, we incubated the FKBP51 with 200 µM of control peptide (DDDDDDDDDD) in a similar way.

FKBP51 (TPR domain) = biological target: T1, FKBP51 (TPR domain) (Homo sapiens, UniProt Q13451); experiment: Differential scanning fluorimetry (DSF), dissociation constant of FKBP51-C90 complex under thermal denaturation; type: binding
T1 construct: FKBP51 full length DNA (IMAGE cDNA clone: 5753397 5′) was PCR amplified; GST (N, cleaved yes); made in house; host or cells: E. coli BL21
T1 sequence (Q13451 1-457): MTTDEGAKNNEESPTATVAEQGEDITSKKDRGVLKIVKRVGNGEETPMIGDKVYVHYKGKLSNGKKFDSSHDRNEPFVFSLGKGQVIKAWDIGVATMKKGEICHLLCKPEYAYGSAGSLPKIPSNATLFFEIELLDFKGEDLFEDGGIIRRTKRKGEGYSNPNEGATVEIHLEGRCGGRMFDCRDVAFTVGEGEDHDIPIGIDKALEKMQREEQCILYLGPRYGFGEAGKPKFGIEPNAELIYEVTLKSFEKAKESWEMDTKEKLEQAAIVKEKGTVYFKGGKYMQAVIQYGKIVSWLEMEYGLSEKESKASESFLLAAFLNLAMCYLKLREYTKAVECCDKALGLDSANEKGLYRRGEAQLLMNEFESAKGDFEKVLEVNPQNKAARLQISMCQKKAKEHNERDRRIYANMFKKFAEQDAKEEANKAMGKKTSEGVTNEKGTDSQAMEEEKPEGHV
Experimental: as §1

Row | Molecule | change in melting point of FKBP51 (control peptide) (FKBP51; control peptide 200 µM vs 0 µM) | Kd (FKBP51 (TPR domain); DSF under thermal denaturation, full-length FKBP51 0.1 mg/ml (2 µM), 5X SYPRO orange, 0.5X PBS, C90 0–250 µM / 0–500 µM (method), triplicate, 20–80 °C, 0.2 °C increments, Tm by first derivative, single site ligand binding model, T1 43.8 and T2 48.5 °C, R^2 0.99) | dissociation constant compared with reported FKBP38-MEEVD peptide (FKBP51 (TPR domain); DSF value of FKBP51-C90 complex compared with literature value of FKBP38-MEEVD peptide) | ΔTm (first melting point) (FKBP51; C90 250 µM vs 0 µM, triplicate, first derivative of melting curve) | first melting point of FKBP51 in presence of peptide (FKBP51; C90 250 µM, triplicate, without peptide 44 °C / 43.8 °C) | second melting point of FKBP51 in presence of peptide (FKBP51; C90 250 µM, triplicate, without peptide 58.6 °C / 57.8 °C)
1 | H-DDDDDDDDDD-OH [control peptide, reference compound] | did not lead to any change in the melting point of FKBP51 | – | – | – | – | –
2 | CSCC[C@H](NC(=O)[C@H](CCCNC(=N)N)NC(=O)[C@H](CO)NC(=O)[C@@H](NC(=O)[C@H](CC(=O)O)NC(=O)[C@H](Cc1c[nH]cn1)NC(=O)[C@H](Cc1c[nH]cn1)NC(=O)[C@H](Cc1c[nH]cn1)NC(=O)[C@H](Cc1c[nH]cn1)NC(=O)[C@H](Cc1c[nH]cn1)NC(=O)[C@@H](N)Cc1c[nH]cn1)[C@@H](C)O)C(=O)N[C@@H](CCC(=O)O)C(=O)N[C@@H](CCC(=O)O)C(=O)N[C@H](C(=O)N[C@@H](CC(=O)O)C(=O)O)C(C)C [C90] (H-HHHHHHDTSRMEEVD-OH) | – | 70 ± 32 µM | very similar to the reported dissociation constant of FKBP38-MEEVD peptide | 4.8 °C | 48.6 °C | without much change in the second melting point; also recorded: without affecting the second melting point
